Patent EP1147095B1, “2, 3, 4, 5-TETRAHYDRO-1H-[1, 4] BENZODIAZEPINE-3-HYDROXAMIC ACIDS AS MATRIX METALLOPROTEINASE INHIBITORS” (Wyeth Holdings Corporation, priority 1999, dated 2000)

Legend:
Type in all cases: biochemical
TACE = target: T1, TACE (Homo sapiens, UniProt P78536); assay: Procedure for Measuring TACE Inhibition; details: TACE (Immunex), fluorescent peptidyl substrate
T1 construct: purchased Immunex
Procedure: The plates were incubated for 10 minutes at room temperature. The reaction was initiated by addition of a fluorescent peptidyl substrate (final concentration 100 µM) to each well with shaking on a shaker for 5 sec. The reaction was read (excitation 340 nm, emission 420 nm) for 10 min. and the increase in fluorescence over time was plotted as a linear line. The slope of the line was calculated and this represents the reaction rate. […] The mean (x±sem) of the control rate was calculated and compared for statistical significance (p<0.05) with drug-treated rates using Dunnett's multiple comparison test.

MMP-1 = target: T2, MMP-1 (Homo sapiens, UniProt P03956); assay: In Vitro Collagenase Assay; details: human recombinant fibroblast collagenase, fluorogenic peptide substrate
T2 construct: human recombinant fibroblast collagenase (truncated, mw=18,828)
T2 sequence (P03956 100-269 limits assumed): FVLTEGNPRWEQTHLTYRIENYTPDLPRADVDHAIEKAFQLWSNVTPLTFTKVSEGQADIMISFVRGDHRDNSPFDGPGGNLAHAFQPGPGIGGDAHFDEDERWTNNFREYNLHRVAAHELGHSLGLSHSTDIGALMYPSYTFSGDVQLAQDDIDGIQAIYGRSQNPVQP
From the text: In Vitro Collagenase Assay
This assay was based on the cleavage of a peptide substrate ((Dnp-Pro-Cha-Gly-Cys(Me)-His-Ala-Lys(NMa)-NH2), available from Peptide International, Inc.) by collagenase releasing the fluorescent NMa group which was quantitated on the fluorometer as disclosed in Bickett et al., "A High Throughput Fluorogenic Substrate for Interstitial Collagenase (MMP-1) and Gelatinase (MMP-9)", Anal. Biochem., 212:58-64, (1993). Dnp quenches the NMa fluorescence in the intact substrate.
The assay was run in HCBC assay buffer (50 mM HEPES, pH 7.0, 5 mM Ca^+2, 0.02% Brij, 0.5% Cysteine), with human recombinant fibroblast collagenase (truncated, mw=18,828, from Wyeth-Ayerst Research, Radnor, PA). The substrate was dissolved in methanol and stored frozen in 1 mM aliquots. Collagenase was stored frozen in buffer in 25 µM aliquots. In conducting the assay, the substrate was dissolved in HCBC buffer to a final concentration of 10 µM and collagenase to a final concentration of 5 nM. The compounds being examined were dissolved in methanol, DMSO, or HCBC. The methanol and DMSO were diluted in HCBC to < 1.0%. The compounds were added to a 96 well plate containing enzyme and the reaction was started by the addition of substrate.
The reaction was read (excitation 340 nm, emission 444 nm) for 10 min. and the increase in fluorescence over time was plotted as a linear line. The slope of the line was calculated representing the reaction rate. The linearity of the reaction rate was confirmed (r^2 >0.85). The mean (x ± sem) of the control rate was calculated and compared for statistical significance (p <0.05) with drug-treated rates using Dunnett's multiple comparison test. Dose-response relationships were generated using multiple doses of drug and IC50 values with 95% CI were estimated using linear regression.

MMP-13 = MMP-13 (Homo sapiens, UniProt P45452); assay: MMP-13 inhibition (Table 1, no method described)
MMP-9 = target: T3, MMP-9 (Homo sapiens, UniProt P14780); assay: In Vitro Gelatinase Assay; details: human neutrophil gelatinase B, thiopeptide substrate
T3 construct: from tissue; host or cells: human neutrophils
T3 sequence (P14780 94-707): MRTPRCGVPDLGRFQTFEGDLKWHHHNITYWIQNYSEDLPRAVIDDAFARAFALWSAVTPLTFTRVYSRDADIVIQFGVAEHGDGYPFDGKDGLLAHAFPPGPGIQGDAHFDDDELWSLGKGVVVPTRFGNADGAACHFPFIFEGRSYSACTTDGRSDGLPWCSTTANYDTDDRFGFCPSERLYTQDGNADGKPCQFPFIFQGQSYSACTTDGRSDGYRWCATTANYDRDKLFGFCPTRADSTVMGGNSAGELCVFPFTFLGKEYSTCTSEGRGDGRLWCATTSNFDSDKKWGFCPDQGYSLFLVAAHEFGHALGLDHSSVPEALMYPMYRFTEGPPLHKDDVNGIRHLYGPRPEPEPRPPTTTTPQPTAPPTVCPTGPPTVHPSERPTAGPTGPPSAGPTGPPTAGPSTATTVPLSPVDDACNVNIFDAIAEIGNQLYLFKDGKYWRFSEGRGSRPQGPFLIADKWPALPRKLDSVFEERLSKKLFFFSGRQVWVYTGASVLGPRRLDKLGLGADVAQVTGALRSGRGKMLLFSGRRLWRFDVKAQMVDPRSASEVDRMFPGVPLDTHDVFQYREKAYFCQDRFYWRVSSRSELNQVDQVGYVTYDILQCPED
Procedure: In Vitro Gelatinase Assay
The assay is based on the cleavage of the thiopeptide substrate ((Ac-Pro-Leu-Gly(2-mercapto-4-methyl-pentanoyl)-Leu-Gly-OEt), available from Bachem Bioscience) by the enzyme gelatinase, releasing the substrate product which reacts colorimetrically with DTNB ((5,5'-dithio-bis(2-nitro-benzoic acid)). This assay is disclosed in Weingarten et al., "Spectrophotometric Assay for Vertebrate Collegenase", Anal. Biochem., 147:437-440, (1985). The enzyme activity is measured by the rate of the color increase.
The thiopeptide substrate was made up fresh as a 20 mM stock in 100% DMSO and the DTNB was dissolved in 100% DMSO as a 100 mM stock and stored in the dark at room temperature. The substrate and the DTNB were diluted together to 1 mM with substrate buffer (50 mM HEPES, pH 7.5, 5 mM CaCl2) before use. The stock of human neutrophil gelatinase B was diluted with assay buffer (50 mM HEPES, pH 7.5, 5 mM CaCl2, 0.02% Brij) to a final concentration of 0.15 nM.
The assay buffer, enzyme, DTNB/substrate (500 µM final concentration) and vehicle or inhibitor were added to a 96 well plate (total reaction volume of 200µl) and the increase in color was monitored spectrophotometrically for 5 minutes at 405 nm on a plate reader.
The increase in OD405 was plotted and the slope of the line was calculated. The slope represents the reaction rate. The linearity of the reaction rate was confirmed (r^2 >0.85) and the mean (x ± sem) of the control rate was calculated and compared for statistical significance (p <0.05) with drug-treated rates using Dunnett's multiple comparison test. Dose-response relationships were generated using multiple doses of drug and IC50 values with 95% CI were estimated using linear regression (IPRED, HTB).

T1 sequence (P78536 215-824): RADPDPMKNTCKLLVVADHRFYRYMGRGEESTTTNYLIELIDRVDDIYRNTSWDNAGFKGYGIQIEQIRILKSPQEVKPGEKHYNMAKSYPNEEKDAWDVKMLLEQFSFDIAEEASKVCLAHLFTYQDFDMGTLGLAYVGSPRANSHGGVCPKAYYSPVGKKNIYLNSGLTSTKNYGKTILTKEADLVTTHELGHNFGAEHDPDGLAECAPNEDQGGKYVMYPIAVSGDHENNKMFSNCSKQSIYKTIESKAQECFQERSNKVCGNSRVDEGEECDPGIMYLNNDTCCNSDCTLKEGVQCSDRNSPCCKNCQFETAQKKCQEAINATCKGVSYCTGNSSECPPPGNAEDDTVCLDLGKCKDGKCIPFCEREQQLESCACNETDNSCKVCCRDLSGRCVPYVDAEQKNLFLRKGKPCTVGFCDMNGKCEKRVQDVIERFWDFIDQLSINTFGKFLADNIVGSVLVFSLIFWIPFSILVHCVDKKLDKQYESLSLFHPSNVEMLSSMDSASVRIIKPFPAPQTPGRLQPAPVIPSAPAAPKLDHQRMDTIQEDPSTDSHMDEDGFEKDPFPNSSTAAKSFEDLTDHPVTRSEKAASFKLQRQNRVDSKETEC

IC50 (TACE) [nM]	IC50 (MMP-1) [nM]	IC50 (MMP-13) [nM]	IC50 (MMP-9) [nM]	Molecule
33	125	7	2	4-(4-But-2-ynyloxybenzene-sulfonyl)-1-methoxyacetyl-2,3,4,5-tetrahydro-1H-[1,4]benzodiazepine-3-carboxylic acid, hydroxyamide [Example 57]
10	841	29	33	4-(4-[4-Methoxybut-2-ynyloxy]benzenesulfonyl)-1-(3-pyridinylcarbonyl)-2,3,4,5-tetrahydro-1H-[1,4]benzodiazepine-3-carboxylic acid, hydroxyamide [Example 58]
16	835	77	228	CC#CCOc1ccc(S(=O)(=O)N2Cc3ccccc3N(C(C)=O)CC2C(=O)NO)cc1 (centres unmarked) [Example 1, 1-Acetyl-4-(4-but-2-ynyloxbenzenesulfonyl)-2,3,4,5-tetrahydro-1H-[1,4]benzodiazepine-3-carboxylic acid, hydroxyamide]
	165		36	CC#CCOc1ccc(S(=O)(=O)N2Cc3ccccc3N(C(=O)c3ccccc3)CC2C(=O)NO)cc1 (centres unmarked) [Example 3, 1-Benzoyl-4-(4-but-2-ynyloxybenzenesulfonyl)-2,3,4,5-tetrahydro-1H-[1,4]-benzodiazepine-3-carboxylic acid, hydroxyamide]
